ChEMBL document CHEMBL1143675, “Triterpenoids from Schisandra rubriflora” (J Nat Prod, 2007)
Converted amounts (≈) assume the structure as drawn.

Tests used:
[1] = Cytotoxicity against C8166 cells after 72 hrs by MTT method; type: cell-based; details: human
[2] = system: Human immunodeficiency virus 1; test: Antiviral activity against HIV1 3B in C8166 cells; type: functional, organism-based; details: Human immunodeficiency virus 1, 3B

Structure (SMILES): COC(=O)C[C@H]1OC(C)(C)[C@@H]2C[C@H]3O[C@@]12C[C@]12CC[C@]4(C)C(=O)[C@@H](C)[C@@H]5[C@H]6OC(=O)[C@@H](C)[C@H]6O[C@@](O1)(C(=O)[C@H]32)[C@@H]54 [RUBRIFLORIN A]
- CC50 at 72 h [1]: 89.1 µg/mL (≈ 159 µM)
- EC50 [2]: 10 µg/mL (≈ 17.9 µM)

Structure (SMILES): COC(=O)C[C@H]1OC(C)(C)C2=C1C[C@]13CC[C@]4(C)C(=O)[C@@H](C)[C@@H]5[C@H]6OC(=O)[C@@H](C)[C@H]6O[C@@](O1)(C(=O)C3=CC2=O)[C@@H]54 [RUBRIFLORIN B]
- CC50 at 72 h [1]: 100 µg/mL (≈ 181 µM)
- EC50 [2]: 16.2 µg/mL (≈ 29.2 µM)

Structure (SMILES): CCOC(=O)C[C@H]1OC(C)(C)C2=C1C[C@]13CC[C@]4(C)C(=O)[C@@H](C)[C@@H]5[C@H]6OC(=O)[C@@H](C)[C@H]6O[C@@](O1)(C(=O)C3=CC2=O)[C@@H]54 [RUBRIFLORIN C]
- CC50 at 72 h [1]: > 200 µg/mL
- EC50 [2]: 81.3 µg/mL (≈ 143 µM)

Structure (SMILES): Cc1cn([C@H]2C[C@H](N=[N+]=[N-])[C@@H](CO)O2)c(=O)[nH]c1=O [ZIDOVUDINE]
- CC50 at 72 h [1]: > 200 µg/mL
- EC50 [2]: 0.0043 µg/mL (≈ 0.0161 µM)
